# Test results: publication PMC5225203, “Multiparameter toxicity assessment of novel DOPO-derived organophosphorus flame retardants” (Archives of Toxicology, 2016)
# How the values were obtained:
# [1] = system: differentiated LUHMES cells; type: cell-based, human; details: positive control
# Experimental: Suppl. Fig. 10. Migration of mitochondria in neurites. Mitochondrial migration was detected in fully differentiated (day 6 of differentiation, DoD6) mixed LUHMES cultures consisting of 3% eGFP/mito-tRFP-overexpressing LUHMES in 97% unlabeled LUHMES in order to allow tracking of mitochondria in single neurites in an environment of normal LUHMES cell density (Schildknecht et al. 2013, ALTEX 30(4):427-444). Single cell time lapse imaging was performed for a period of 90 s in intervals of 3 s with a Zeiss LSM 780 inverted fluorescence microscope YOKOGAWA CSU-XI spinning disk system using an EVOLVE camera (Carl Zeiss Group, Oberkochen, Germany) equipped with a 5% CO2 /37°C controlled chamber and a 40 x 1.3 NA oil objective. For image analysis, kymographs (graphical representation of spatial position over time) based on the data obtained from single cell time lapse experiments were created using ImageJ Software (NIH, Bethesda, USA). The neurite was manually defined by the segmented line tool. To calculate mitochondrial velocity, diagonal lines were drawn for each moving mitochondrium in the kymograph and analysed by calculating the slope with the macro-plugin Kymo Line ROI, generated by Felix Schöneberger, Bioimaging Center (BIC), University of Konstanz, Germany.
# (1 picture or pasted object on this page, not shown here)
# [2] = system: 3D epidermal in vitro model generated from primary human keratinocytes; experiment: 3D epidermal in vitro model; type: cell-based; details: positive control, 5 %, 15 min
# Experimental: Human primary keratinocytes (PR3D-HPEK-50, CELLnTEC, Switzerland) were grown in flasks in proliferation medium (CNT-PR, CELLnTEC) until subconfluency was reached, after which the cells were seeded into transwell inserts containing polycarbonate membranes with a pore size of 0.4 µm at a density of 3.3 × 10^5 cells/cm^2 and grown for 3 days in CNT-PR until confluency was reached. Differentiation was initiated by the addition of 3D barrier medium (CNT-PR-3D, CELLnTEC) for 18 h to allow development of cell-to-cell adhesion structures. 3D growth and differentiation were induced by complete removal of medium from the upper transwell compartment and replacement of the CNT-PR-3D differentiation medium in the lower compartment. Cells were allowed to differentiate for 11 days with 3 medium changes per week in the lower compartment and direct cell-to-air contact in the top compartment. Flame retardants were suspended at a concentration of 200 mM in PBS containing 5 % DMSO, after which 100 µL of each test compound was applied on top of the epithelial barrier model. […] Cell viability of the epidermal models was assessed by measuring the reduction of resazurin to resorufin (PrestoBlue® Assay). Cell viability values (fluorescence signals) were normalized to the epidermal model thickness. […] Samples were mounted with DPX mounting medium (Sigma-Aldrich) and analyzed by microscopy (Olympus IX 81).
# [3] = system: ARE-dependent luciferase expression in KeratinoSens cells; experiment: KeratinoSens skin sensitization assay; type: cell-based; details: positive control
# Experimental: Generation of the stable KeratinoSens™ cell line was previously described in detail (Emter et al. [2010]). KeratinoSens™ cells were maintained in DMEM containing glutamax (Gibco/Invitrogen), 9 % FCS, and 0.5 mg/mL G418. For the experiments, KeratinoSens™ cells were seeded onto 96-well plates at a density of 10,000 cells per well in 125 µL medium without G418. After 24 h, the medium was replaced with 200 µL DMEM containing 1 % FCS and the test compounds. After a 2-day incubation period at 37 °C in an atmosphere containing 5 % CO2, the cells were washed once with PBS and a resazurin reduction assay (PrestoBlue®) was carried out in order to compare the viability of the differently treated groups. Fluorescence intensity was measured at 550 nmex and 590 nmem. After another washing step with PBS, cell lysis was performed using 20 µL/well passive lysis buffer (Promega) for 20 min at room temperature. Luciferase activity was measured by applying 50 µL luciferase substrate automatically to each well and detecting the resulting luminescence. Compounds were considered as skin sensitizers when a statistically significant induction of luciferase activity above a defined threshold of ≥1.5 in the absence of impaired cell viability was observed (Emter et al. [2010]; Natsch et al. [2011]).
compound,measurement,setting,value
"C[n+]1ccc(-c2ccccc2)cc1 [MPP^+, reference compound]",velocity of mitochondrial migration in neurites,[1],significant decline
"CCCCCCCCCCCCOS(=O)(=O)[O-].[Na+] [SDS, sodium dodecyl sulfate]",influence on the architecture of the epidermis,[2],complete disintegration of the stratum corneum and substantial cell death in the stratum spinosum
"CC(=O)C=Cc1ccccc1 [benzylidene acetone, reference compound]",concentration at which luciferase increase is associated with cell death,[3],> 10 µM
